In US20240018133A1, “MODULATORS OF THE INTEGRATED STRESS PATHWAY” (Calico Life Sciences LLC, priority 2019, published 2024):

Test system: ATF4 luciferase reporter (human full-length ATF4 5'-UTR fused to firefly luciferase) in HEK293T cells
Experiment: ATF4-Luc assay (in vitro model of VWMD): HEK293T cells carrying ATF4 luciferase reporter, tunicamycin-treated
Type: cell-based
Settings: Homo sapiens, HEK-293T, 1 μg/mL tunicamycin, 7 hours, One Glo luminescence
Experimental: In order to test exemplary compounds of the invention in a cellular context, a stable VWMD cell line was first constructed. The ATF4 reporter was prepared by fusing the human full-length ATF4 5′-UTR (NCBI Accession No. BC022088.2) in front of the firefly luciferase (FLuc) coding sequence lacking the initiator methionine as described in Sidrauski et al (eLife 2013). The construct was used to produce recombinant retroviruses using standard methods and the resulting viral supernatant was used to transduce HEK293T cells, which were then subsequently selected with puromycin to generate a stable cell line.
HEK293T cells carrying the ATF4 luciferase reporter were plated on polylysine coated 384-well plates (Greiner Bio-one) at 30,000 cells per well. Cells were treated the next day with 1 μg/mL tunicamycin and 200 nM of a compound of Formula (I) for 7 hours. Luminescence was measured using One Glo (Promega) as specified by the manufacturer. Cells were maintained in DMEM with L-glutamine supplemented with 10% heat-inactivated FBS (Gibco) and Antibiotic-Antimycotic solution (Gibco).
Table 2 below summarizes the EC50 data obtained using the ATF4-Luc assay for exemplary compounds of the invention.

Row | Structure (SMILES) | EC50 [nM]
1 | O=C(NC12CCC(NC(=O)[C@H]3C[C@@H](O)c4cc(Cl)ccc4O3)(CC1)[C@@H](O)C2)c1cc(C(F)F)no1 (single isomer, unassigned) [Compound 215] | 10 to 50
2 | O=C(NC12CCC(NC(=O)[C@@H]3C[C@H](O)c4cc(Cl)ccc4O3)(CC1)[C@@H](O)C2)c1cc(C(F)F)no1 (single isomer, unassigned) [Compound 216] | 250 to 500
3 | C[C@]1(O)C[C@@H](C(=O)NC23CC(NC(=O)COc4ccc(Cl)c(F)c4)(C2)C3)Oc2ccc(Cl)cc21 (single isomer, unassigned) [Compound 237] | < 10
4 | O=C(COc1ccc(Cl)c(F)c1)NC12CCC(NC(=O)[C@H]3C[C@@H](O)c4cc(Cl)ccc4O3)(CC1)[C@@H](O)C2 (single isomer, unassigned) [Compound 238] | < 10
5 | O=C(COc1ccc(Cl)c(F)c1)NC12CCC(NC(=O)[C@@H]3C[C@H](O)c4cc(Cl)ccc4O3)(CC1)[C@@H](O)C2 (single isomer, unassigned) [Compound 239] | < 10
6 | Cc1cc2c(cc1F)[C@H](O)C[C@H](C(=O)NC13CC(NC(=O)COc4ccc(Cl)c(F)c4)(C1)C3)O2 (single isomer, unassigned) [Compound 241] | < 10
7 | O=C(COc1ccc(Cl)c(F)c1)NC12CC(NC(=O)[C@@H]3C[C@H](O)c4cc(Cl)c(F)cc4O3)(C1)C2 (single isomer, unassigned) [Compound 265] | < 10
8 | C[C@@]1(O)C[C@H](C(=O)NC23CC(NC(=O)COc4ccc(Cl)c(F)c4)(C2)C3)Oc2ccc(Cl)cc21 (single isomer, unassigned) [Compound 280] | 10 to 50
9 | C[C@]1(O)C[C@H](C(=O)NC23CC(NC(=O)COc4ccc(Cl)c(F)c4)(C2)C3)Oc2ccc(Cl)cc21 (single isomer, unassigned) [Compound 281] | < 10
10 | C[C@@]1(O)C[C@@H](C(=O)NC23CC(NC(=O)COc4ccc(Cl)c(F)c4)(C2)C3)Oc2ccc(Cl)cc21 (single isomer, unassigned) [Compound 288] | < 10
11 | CN1CC(C(=O)NC23CCC(NC(=O)COc4ccc(Cl)c(F)c4)(CC2)[C@@H](O)C3)Oc2ccc(Cl)cc21 (stereo partly drawn) [Compound 107, 6-chloro-N-{(3S)-4-[2-(4-chloro-3-fluorophenoxy)acetamido]-3-hydroxybicyclo[2.2.2]octan-1-yl}-4-methyl-3,4-dihydro-2H-1,4-benzoxazine-2-carboxamide] | < 10
12 | CN1CC(C(=O)NC23CC(NC(=O)COc4ccc(Cl)c(F)c4)(C2)C3)Oc2ccc(Cl)cc21 (centres unmarked) [Compound 112, 6-chloro-N-{3-[2-(4-chloro-3-fluorophenoxy)acetamido]bicyclo[1.1.1]pentan-1-yl}-4-methyl-3,4-dihydro-2H-1,4-benzoxazine-2-carboxamide] | < 10
13 | O=C(COc1ccc(Cl)c(F)c1)NC12CC(NC(=O)C3CNc4cc(Cl)ccc4O3)(C1)C2 (centres unmarked) [Compound 113, 6-chloro-N-{3-[2-(4-chloro-3-fluorophenoxy)acetamido]bicyclo[1.1.1]pentan-1-yl}-3,4-dihydro-2H-1,4-benzoxazine-2-carboxamide] | < 10
14 | O=C(COc1ccc(Cl)c(F)c1)NC12CC(NC(=O)C3CN(C(=O)c4ccc(S(=O)(=O)F)cc4)c4cc(Cl)ccc4O3)(C1)C2 (centres unmarked) [Compound 147, 4-[6-chloro-2-({3-[2-(4-chloro-3-fluorophenoxy)acetamido]bicyclo[1.1.1]pentan-1-yl}carbamoyl)-2,3-dihydro-4H-1,4-benzoxazine-4-carbonyl]benzene-1-sulfonyl fluoride] | 500 to 2000
15 | CC(C)(C)OC(=O)CN1C[C@@H](C(=O)NC23CCC(NC(=O)COc4ccc(Cl)c(F)c4)(CC2)[C@@H](O)C3)Oc2ccc(Cl)cc21 [Compound 184, tert-butyl [(2S)-6-chloro-2-({(3S)-4-[2-(4-chloro-3-fluorophenoxy)acetamido]-3-hydroxybicyclo[2.2.2]octan-1-yl}carbamoyl)-2,3-dihydro-4H-1,4-benzoxazin-4-yl]acetate] | 250 to 500
16 | O=C(COc1ccc(Cl)c(F)c1)NC12CC(NC(=O)C3CC(=O)c4cc(Cl)ccc4O3)(C1)C2 (centres unmarked) [Compound 186, 6-chloro-N-{3-[2-(4-chloro-3-fluorophenoxy)acetamido]bicyclo[1.1.1]pentan-1-yl}-4-oxo-3,4-dihydro-2H-1-benzopyran-2-carboxamide] | < 10
17 | O=C(COc1ccc(Cl)c(F)c1)NC12CC(NC(=O)C3CC(NCCO)c4cc(Cl)ccc4O3)(C1)C2 (centres unmarked) [Compound 188, 6-chloro-N-{3-[2-(4-chloro-3-fluorophenoxy)acetamido]bicyclo[1.1.1]pentan-1-yl}-4-[(2-hydroxyethyl)amino]-3,4-dihydro-2H-1-benzopyran-2-carboxamide] | 10 to 50
18 | COC(C)(C)CN1C[C@@H](C(=O)NC23CC(NC(=O)COc4ccc(Cl)c(F)c4)(C2)C3)Oc2ccc(Cl)cc21 [Compound 191, (2S)-6-chloro-N-{3-[2-(4-chloro-3-fluorophenoxy)acetamido]bicyclo[1.1.1]pentan-1-yl}-4-(2-methoxy-2-methylpropyl)-3,4-dihydro-2H-1,4-benzoxazine-2-carboxamide] | 500 to 2000
19 | O=C(O)CNC1CC(C(=O)NC23CC(NC(=O)COc4ccc(Cl)c(F)c4)(C2)C3)Oc2ccc(Cl)cc21 (centres unmarked) [Compound 192, {[6-chloro-2-({3-[2-(4-chloro-3-fluorophenoxy)acetamido]bicyclo[1.1.1]pentan-1-yl}carbamoyl)-3,4-dihydro-2H-1-benzopyran-4-yl]amino}acetic acid] | 500 to 2000
20 | O=C(COc1ccc(Cl)c(F)c1)NC12CC(NC(=O)[C@@H]3C[C@H](O)c4cc(Cl)ccc4O3)(C1)C2 [Compound 195, (2S,4S)-6-chloro-N-{3-[2-(4-chloro-3-fluorophenoxy)acetamido]bicyclo[1.1.1]pentan-1-yl}-4-hydroxy-3,4-dihydro-2H-1-benzopyran-2-carboxamide] | < 10
21 | O=C(COc1ccc(Cl)c(F)c1)NC12CC(NC(=O)[C@H]3C[C@@H](O)c4cc(Cl)ccc4O3)(C1)C2 [Compound 196, (2R,4R)-6-chloro-N-{3-[2-(4-chloro-3-fluorophenoxy)acetamido]bicyclo[1.1.1]pentan-1-yl}-4-hydroxy-3,4-dihydro-2H-1-benzopyran-2-carboxamide] | < 10
22 | O=C(COc1ccc(Cl)c(F)c1)NC12CC(NC(=O)[C@H]3C[C@H](O)c4cc(Cl)ccc4O3)(C1)C2 [Compound 197, (2R,4S)-6-chloro-N-{3-[2-(4-chloro-3-fluorophenoxy)acetamido]bicyclo[1.1.1]pentan-1-yl}-4-hydroxy-3,4-dihydro-2H-1-benzopyran-2-carboxamide] | < 10
23 | O=C(COc1ccc(Cl)c(F)c1)NC12CC(NC(=O)[C@@H]3C[C@@H](O)c4cc(Cl)ccc4O3)(C1)C2 [Compound 198, (2S,4R)-6-chloro-N-{3-[2-(4-chloro-3-fluorophenoxy)acetamido]bicyclo[1.1.1]pentan-1-yl}-4-hydroxy-3,4-dihydro-2H-1-benzopyran-2-carboxamide] | < 10
24 | O=C(COc1ccc(Cl)c(F)c1)NC12CCC(NC(=O)C3CC(=O)c4cc(Cl)ccc4O3)(CC1)C[C@@H]2O (stereo partly drawn) [Compound 199C, 6-chloro-N-{(3S)-4-[2-(4-chloro-3-fluorophenoxy)acetamido]-3-hydroxybicyclo[2.2.2]octan-1-yl}-4-oxo-3,4-dihydro-2H-1-benzopyran-2-carboxamide] | < 10
25 | O=C(COc1ccc(Cl)c(Cl)c1)NC12CC(NC(=O)[C@H]3C[C@@H](O)c4cc(F)c(F)cc4O3)(C1)C2 [Compound 207, (2R,4R)—N-{3-[2-(3,4-dichlorophenoxy)acetamido]bicyclo[1.1.1]pentan-1-yl}-6,7-difluoro-4-hydroxy-3,4-dihydro-2H-1-benzopyran-2-carboxamide] | < 10
26 | O=C(COc1ccc(Cl)c(Cl)c1)NC12CC(NC(=O)[C@H]3CC(=O)c4cc(F)c(F)cc4O3)(C1)C2 [Compound 207E, (2R)—N-{3-[2-(3,4-dichlorophenoxy)acetamido]bicyclo[1.1.1]pentan-1-yl}-6,7-difluoro-4-oxo-3,4-dihydro-2H-1-benzopyran-2-carboxamide] | < 10
27 | O=C(COc1ccc(Cl)c(Cl)c1)NC12CC(NC(=O)[C@@H]3C[C@H](O)c4cc(F)c(F)cc4O3)(C1)C2 [Compound 208, (2S,4S)—N-{3-[2-(3,4-dichlorophenoxy)acetamido]bicyclo[1.1.1]pentan-1-yl}-6,7-difluoro-4-hydroxy-3,4-dihydro-2H-1-benzopyran-2-carboxamide] | < 10
28 | O=C(COc1ccc(Cl)c(F)c1)NC12CC(NC(=O)C3CC(NC4(C(=O)O)CC4)c4cc(Cl)ccc4O3)(C1)C2 (centres unmarked) [Compound 210, 1-{[6-chloro-2-({3-[2-(4-chloro-3-fluorophenoxy)acetamido]bicyclo[1.1.1]pentan-1-yl}carbamoyl)-3,4-dihydro-2H-1-benzopyran-4-yl]amino}cyclopropane-1-carboxylic acid] | 250 to 500
29 | COC(=O)CN1C[C@@H](C(=O)NC23CC(NC(=O)COc4ccc(Cl)c(F)c4)(C2)C3)Oc2ccc(Cl)cc21 [Compound 211, methyl [(2S)-6-chloro-2-({3-[2-(4-chloro-3-fluorophenoxy)acetamido]bicyclo[1.1.1]pentan-1-yl}carbamoyl)-2,3-dihydro-4H-1,4-benzoxazin-4-yl]acetate] | 10 to 50
